# What was measured:
# sciatic nerve injury = assay: Pain withdrawal reflex latencies after unilateral sciatic nerve injury and long-term treatment (FIG. 3); format: in vivo; settings: unilateral sciatic nerve injury; long-term treatment; PPX 0.5 mg/kg, morphine 1 mg/kg, alone or combined
# Description: Filled circles show the reflex data of the injured side of the animal. […] Filled circles show the reflex data of the injured side of the animal. […] Filled circles show the reflex data of the injured side of the animal.
# sciatic nerve = assay: Sciatic nerve function: compound action potentials (CAPs) on electrical stimulation after sciatic nerve injury and long-term treatment (FIG. 2); format: in vivo; settings: sciatic nerve injury; daily treatments of 100 μl in saline; PPX 0.5 mg/kg, morphine 1 mg/kg, alone or combined; representative animal
# Protocol: FIG. 2 depicts the in vitro effects of different long-term treatments on sciatic nerve function, as assessed by the response profiles of these nerves to electrical stimulation.
# The CAP is an indicator of electrical activity in the nerve that is required for normal transmission of sensory information.
# The effects in vitro of long-term treatments on sciatic nerve function were assessed by the response profiles of these nerves to electrical stimulation as shown in FIG. 2.
structure (smiles),measurement,setting,value
CN1CC[C@]23c4c5ccc(O)c4O[C@H]2[C@@H](O)C=C[C@H]3[C@H]1C5 [morphine],pain withdrawal reflex latencies of the injured side versus pre-injury data (days −3 to −1),sciatic nerve injury,did not lead to a recovery of withdrawal latencies to pre-injury data
same,compound action potential (CAP) on stimulation of the nerve on the injured side,sciatic nerve,failed to elicit a similarly strong CAP

# Reference: patent publication US20250205205A1, “METHODS AND COMPOSITIONS FOR PREVENTING AND TREATING FIBROSIS AND IMPROVING FUNCTIONAL RECOVERY AFTER INJURY OR WITH AGING” (East Carolina University, priority 2022, published 2025)
